These results are taken from patent publication US20240000814A1, “TREATING ALCOHOL USE DISORDER USING PSILOCYBIN” (New York University, priority 2022, published 2024).

The test system of data set [1] is AUD patients. In words: Double-blind randomized trial of psilocybin-assisted treatment of AUD: drinking outcomes by timeline followback. It is filed as in vivo, human. The note with it: for % of Heavy drinking days (PHDD), mean: 32-week double-blind follow-up (weeks 5-36) after first dose, oral psilocybin 25 mg/70 kg then 25-40 mg/70 kg or diphenhydramine 50 mg then 50-100 mg at weeks 4 and 8, with psychotherapy. The method, then:
Design: In this double-blind trial, participants were offered 12 weeks of manualized psychotherapy and were randomly assigned to receive psilocybin vs. diphenhydramine during two day-long medication sessions at week 4 and 8. Outcomes were assessed over the 32-week double-blind period following the first dose of study medication.
Interventions: Study medications were psilocybin 25 mg/70 kg vs. diphenhydramine 50 mg (first session) and psilocybin 25-40 mg/70 kg vs. diphenhydramine 50-100 mg (second session). Psychotherapy included motivational enhancement therapy and cognitive-behavioral therapy.
Qualifying participants were assessed at screening, baseline (week 0), and weeks 4, 5, 8, 9, 12, 24, and 36. They were randomly assigned in a 1:1 ratio to receive either psilocybin or diphenhydramine, administered in two eight-hour sessions at weeks 4 and 8. All participants who completed the double-blind observation period (weeks 5-36) and still met safety criteria were offered an open-label psilocybin session at week 38, including four additional psychotherapy sessions and assessment for an additional 18 weeks. Participants received up to a total of $560 for completing assessments in the course of the trial, but were not reimbursed for attending the therapy and medication sessions.
All participants were offered a total of 12 psychotherapy sessions from a team of two therapists including a licensed psychiatrist: 4 before the first medication session, 4 between the first and second medication sessions, and 4 in the month following the second medication session. The psychotherapy, described in detail in a separate publication,^41 included motivational interviewing and cognitive behavioral therapy for AUD as well as material designed to help the participants to manage and make use of the psychoactive effects of the study medication.
Study medication was taken orally in a single opaque capsule of unvarying appearance and weight. Psilocybin doses were weight-based to control for participant body weight, which ranged from 49.0 to 116.1 (mean=78.3, SD=15.6) kg. Doses for the first session were psilocybin 25 mg/70 kg or diphenhydramine 50 mg. Participants received an increased dose in the second session if there were no dose-limiting adverse events and they agreed to the increase. The increased dose of psilocybin was 30 mg/70 kg if the participant's total score on the Pahnke-Richards Mystical Experience Questionnaire (MEQ)^42 was ≥0.6 in the first session (indicating a robust subjective response to the 25 mg/70 kg dose), or 40 mg/70 kg if the MEQ total score in the first session was <0.6. The increased dose of diphenhydramine was 100 mg, regardless of subjective response.
Study medication was administered at approximately 9 AM, after which participants were required to stay in the session room with the therapists for at least 8 hours (except for bathroom breaks). During the session, participants were encouraged to lie on a couch wearing eyeshades and headphones providing a standardized playlist of music. Medications were available in the session room to treat hypertension, severe anxiety, or psychotic symptoms.
The pre-specified primary drinking outcome was the percentage of heavy drinking days (PH DD) during […], assessed at weeks 8, 12, 24, and 36 using the timeline followback, a reliable and valid calendar-based method which is the gold standard outcome for AUD clinical trials.^43-47 Secondary outcomes included percent drinking days (PDD), average drinks per day (DPD), and dichotomous outcomes: abstinence, lack of heavy drinking days, and reduction in World Health Organization risk level^48 by one, two, or three levels. Hair or fingernail samples were collected at week 24 and assayed for ethylglucuronide (EtG) concentration to confirm self-reported abstinence. The Short Index of Problems (SIP-2R)^49 was used to assess drinking-related problems at baseline and weeks 12, 24, and 36. […]

Data set [2] has as its system AUD patients. Nature of the data set: Subjective effects of study medication, Mystical Experience Questionnaire (MEQ). It is filed as in vivo, human. The protocol:
Subjective effects of psilocybin vs. diphenhydramine were assessed using the States of Consciousness Questionnaire,^42 containing the 43-item Mystical Experience Questionnaire (MEQ), completed immediately after each medication session.
MEQ scores for the first and second medication sessions were computed and contrasted by group (psilocybin vs. diphenhydramine) using t-tests for independent samples.

Data set [3] deals with AUD patients. In words: Safety: blood pressure, heart rate and adverse events in the trial. It is filed as in vivo, human. The protocol: Blood pressure and heart rate were assessed at 30- to 60-minute intervals during the first 6 hours of each medication session. Adverse events were solicited at each post-screening assessment.
Blood pressure and heart rate treatment contrasts were based on MMRM with fixed, categorical effects of treatment and assessment, a treatment-by-assessment interaction, and a fixed covariate (value of each outcome prior to drug administration). All adverse events occurring after informed consent were MedDRA-coded and tabulated, and prevalence within treatment groups (proportion of participants affected) was compared using Fisher's exact tests.

Data set [4] has as its system alcohol-dependent participants. The note with it: meta-analysis, 95% confidence interval 1.36-2.84; cited from earlier work.
The mark [5] stands for this setting: 32-week double-blind follow-up (weeks 5-36).
[6] abbreviates: 32 weeks following the first administration of study medication.
Where [7] appears, read: treatment-emergent, within 48 hours of study drug administration.

As to `CN(C)CCOC(c1ccccc1)c1ccccc1` [Diphenhydramine, diphenhydramine], in the data set on AUD patients [1] (setting [5]), the “% of Drinking days (PDD), mean” value was 42.83% and the “Drinks per day (DPD), mean” value was determined as 2.26 Drinks per day. For the same compound, in the data set on AUD patients [1], the “% of Heavy drinking days (PHDD), mean” value amounted to 23.57%. For the same compound, in the data set with AUD patients [1] (listed as diphenhydramine), the “% of Heavy drinking days (PHDD), mean” value was 23.6%. Also, in the data set on AUD patients [1] (Weeks 5-36), the “Abstinence, % of participants” value is “(8.9) %”; the “Abstinence, No. of participants” value amounted to 4; the “No heavy drinking, % of participants” value is “(11.1) %”; the “No heavy drinking, No. of participants” value is given as 5. Also, in the data set with AUD patients [1] (Weeks 5-36), the “WHO risk level Decrease 1, % of participants” value is “(71.1) %”; the “WHO risk level Decrease 2, % of participants” value is listed as “(40.0) %”; the “WHO risk level Decrease 2, No. of participants” value was 18; the “WHO risk level Decrease 3, % of participants” value is given as “(13.3) %”. In the data set with AUD patients [1] (Weeks 5-36), the “WHO risk level Decrease 3, No. of participants” value was 6. For the same compound, in the data set with AUD patients [1] (Weeks 5-36, relative to 12 weeks prior to screening), the “WHO risk level Decrease 1, No. of participants” value was 32. Also, in the data set on AUD patients [1] (Weeks 33-36), the “Abstinence, % of participants” value is recorded as “(24.4) %”; the “Abstinence, No. of participants” value turned out to be 11; the “No heavy drinking, % of participants” value was “(40.0) %”; the “No heavy drinking, No. of participants” value came out at 18. In the data set with AUD patients [1] (Weeks 33-36), the “WHO risk level Decrease 1, % of participants” value was “(64.4) %”; the “WHO risk level Decrease 1, No. of participants” value was found to be 29; the “WHO risk level Decrease 2, % of participants” value was “(40.0) %”; the “WHO risk level Decrease 2, No. of participants” value worked out at 18. For the same compound, in the data set on AUD patients [1] (Weeks 33-36), the “WHO risk level Decrease 3, % of participants” value is reported as “(17.8) %” and the “WHO risk level Decrease 3, No. of participants” value is given as 8. In the data set on AUD patients [2] (Session 1, psilocybin 25 mg/70 kg or diphenhydramine 50 mg), the “Mean MEQ score” value is 0.10 (SD=0.13). In the data set on AUD patients [2] (Session 2, psilocybin 25-40 mg/70 kg or diphenhydramine 50-100 mg), the “Mean MEQ score” value is reported as 0.11 (SD=0.16). Also, in the data set with AUD patients [3] (setting [6]), the “Adverse events reported, number” value is listed as 85 and the Serious adverse events result was “Three”. In the data set with AUD patients [3] (setting [7]), the “Headaches, participants affected / treated” value is on record as 2/45 and the “Headaches, percent of participants” value is recorded as 4.4%.
On to `CCN(CC)C(=O)[C@@H]1C=C2c3cccc4[nH]cc(c34)C[C@H]2N(C)C1` [lysergic acid diethylamide (LSD), lysergic acid diethylamide], for which the “Odds ratio of remission during follow-up vs comparator conditions” value in data set [4] is 1.96.
